Data as given in US11014911B2, “CDK2 inhibitors” (Pfizer Inc., priority 2019, dated 2021).

What was measured:
GSK3β (H350L) = GSK3β (H350L) (Homo sapiens (Human), UniProt P49841); settings: read-out: GSK3β Ki
Protocol: The assay was initiated with the addition of ATP, following 15 minutes pre-incubation of enzyme and inhibitor at room temperature in the reaction mixture. The reaction was stopped after 30 minutes at room temperature by the addition of 50 μL of 80 mM EDTA.

[1] = biological target: CDK2/Cyclin E1 full length (Homo sapiens (Human), UniProt P24941); experiment: CDK2/Cyclin E1 full length mobility shift assay; format: biochemical

Chain of GSK3β (H350L) (P49841 whole entry, stated change not applied): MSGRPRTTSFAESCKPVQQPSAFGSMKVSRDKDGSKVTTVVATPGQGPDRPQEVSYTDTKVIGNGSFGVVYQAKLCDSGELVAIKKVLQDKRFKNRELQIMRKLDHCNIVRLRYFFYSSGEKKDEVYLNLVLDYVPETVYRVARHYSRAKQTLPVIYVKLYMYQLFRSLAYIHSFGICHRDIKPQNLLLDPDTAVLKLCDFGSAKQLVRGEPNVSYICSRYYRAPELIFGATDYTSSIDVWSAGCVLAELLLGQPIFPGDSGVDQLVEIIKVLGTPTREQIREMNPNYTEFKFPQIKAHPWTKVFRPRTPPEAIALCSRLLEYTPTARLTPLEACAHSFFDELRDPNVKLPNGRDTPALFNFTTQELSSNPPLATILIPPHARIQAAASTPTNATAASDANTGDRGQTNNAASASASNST

Row | Compound | Ki (GSK3β (H350L)) [nM] | Ki [1] [nM]
1 | CC[C@H](C)NC(=O)O[C@@H]1CC[C@H](c2cc(NC(=O)Cc3cc(C)on3)n[nH]2)C1 [Example 332, (1R,3S)-3-(3-{[(5-methyl-1,2-oxazol-3-yl)acetyl]amino}-1H-pyrazol-5-yl)cyclopentyl (2S)-butan-2-ylcarbamate] | 61.3 | 1.05
2 | COc1ccc(S(C)(=O)=O)c(CC(=O)Nc2cc([C@H]3CC[C@@H](OC(=O)NC(C)(C)C)C3)[nH]n2)c1 [Example 319, (1R,3S)-3-[3-({[5-methoxy-2-(methylsulfonyl)phenyl]acetyl}amino)-1H-pyrazol-5-yl]cyclopentyl tert-butylcarbamate] | 123 | 0.39
3 | COCc1cc(C(=O)Nc2cc([C@H]3CC[C@@H](OC(=O)NC(C)(C)C)C3)[nH]n2)n(C)n1 [Example 111] | 772 | 0.38
4 | Cc1ccc(CC(=O)Nc2cc([C@@H]3CC[C@H](OC(=O)N[C@H]4CC[C@@H](O)CC4)C3)[nH]n2)cn1 [Example 545, (1S,3R)-3-(3-{[(6-methylpyridin-3-yl)acetyl]amino}-1H-pyrazol-5-yl)cyclopentyl (cis-4-hydroxycyclohexyl)carbamate] | 2.2 | 0.39
5 | C[C@@H](CC(F)(F)F)NC(=O)O[C@@H]1CC[C@H](c2cc(NC(=O)c3cnnn3C)n[nH]2)C1 [Example 91] | 28.1 | 0.09
6 | CC[C@@H](C)NC(=O)O[C@@H]1CC[C@H](c2cc(NC(=O)Cc3ccno3)n[nH]2)C1 [Example 322, (1R,3S)-3-{3-[(1,2-oxazol-5-ylacetyl)amino]-1H-pyrazol-5-yl}cyclopentyl (2R)-butan-2-ylcarbamate] | 81.2 | 0.93
7 | CC[C@H](C)NC(=O)O[C@@H]1CC[C@H](c2cc(NC(=O)Cc3ccnc(C)c3)n[nH]2)C1 [Example 335, (1R,3S)-3-(3-{[(2-methylpyridin-4-yl)acetyl]amino}-1H-pyrazol-5-yl)cyclopentyl (2S)-butan-2-ylcarbamate] | 23.9 | 0.41
8 | CC(C)(C)NC(=O)O[C@@H]1CC[C@H](c2cc(NC(=O)Cc3ccon3)n[nH]2)C1 [Example 17, (1R,3S)-3-{3-[(1,2-oxazol-3-ylacetyl)amino]-1H-pyrazol-5-yl}cyclopentyl tert-butylcarbamate] | 65.8 | 0.33
9 | CCCNC(=O)O[C@H]1CC[C@@H](c2cc(NC(=O)c3cc(C)nn3C)n[nH]2)C1 [Example 172, (1S,3R)-3-(3-{[(1,3-dimethyl-1H-pyrazol-5-yl)carbonyl]amino}-1H-pyrazol-5-yl)cyclopentyl propylcarbamate] | 102 | 1.2
10 | Cc1cc(CC(=O)Nc2cc([C@H]3CC[C@@H](OC(=O)N4CCC4(C)C)C3)[nH]n2)on1 [Example 12, (1R,3S)-3-(3-{[(3-methyl-1,2-oxazol-5-yl)acetyl]amino}-1H-pyrazol-5-yl)cyclopentyl 2,2-dimethylazetidine-1-carboxylate] | 4.86 | 0.13
11 | CC[C@H](C)NC(=O)O[C@@H]1CC[C@H](c2cc(NC(=O)c3cnnn3C)n[nH]2)C1 [Example 4, (1R,3S)-3-(3-{[(1-methyl-1H-1,2,3-triazol-5-yl)carbonyl]amino}-1H-pyrazol-5-yl)cyclopentyl (2S)-butan-2-ylcarbamate] | 110 | 0.1
12 | CC[C@H](C)NC(=O)O[C@@H]1CC[C@H](c2cc(NC(=O)Cc3ccnn3C)n[nH]2)C1 [Example 326, (1R,3S)-3-(3-{[(1-methyl-1H-pyrazol-5-yl)acetyl]amino}-1H-pyrazol-5-yl)cyclopentyl (2S)-butan-2-ylcarbamate] | 72.4 | 1.17
13 | COc1ccc(CC(=O)Nc2cc([C@H]3CC[C@@H](OC(=O)NC4(C)CC4)C3)[nH]n2)nc1 [Example 433, (1R,3S)-3-(3-{[(5-methoxypyridin-2-yl)acetyl]amino}-1H-pyrazol-5-yl)cyclopentyl (1-methylcyclopropyl)carbamate] | 17.1 | 0.5
14 | COCCn1nccc1C(=O)Nc1cc([C@H]2CC[C@@H](OC(=O)NC(C)C)C2)[nH]n1 [Example 278, (1R,3S)-3-[3-({[1-(2-methoxyethyl)-1H-pyrazol-5-yl]carbonyl}amino)-1H-pyrazol-5-yl]cyclopentyl propan-2-ylcarbamate] | 56.7 | 0.52
15 | CCNC(=O)O[C@@H]1CC[C@H](c2cc(NC(=O)Cc3ccc(OC)nc3)n[nH]2)C1 [Example 231, (1R,3S)-3-(3-{[(6-methoxypyridin-3-yl)acetyl]amino}-1H-pyrazol-5-yl)cyclopentyl ethylcarbamate] | 15.6 | 1.18
16 | CC[C@H](C)CNC(=O)O[C@@H]1CC[C@H](c2cc(NC(=O)Cc3ccno3)n[nH]2)C1 [Example 415, (1R,3S)-3-{3-[(1,2-oxazol-5-ylacetyl)amino]-1H-pyrazol-5-yl}cyclopentyl[(2S)-2-methylbutyl]carbamate] | 26.4 | 1.48
17 | C[C@@H](CC(F)(F)F)NC(=O)O[C@@H]1CC[C@H](c2cc(NC(=O)Cc3cnn(C)c3)n[nH]2)C1 [Example 92] | 16.6 | 0.1

Now from value to compound:

Row | Ki (GSK3β (H350L)) [nM] | Ki [1] [nM] | Compound
18 | 9.2 | 0.31 | Cc1cc(CC(=O)Nc2cc([C@H]3CC[C@@H](OC(=O)N4CCOCC4(C)C)C3)[nH]n2)on1 [Example 649, (1R,3S)-3-(3-{[(3-methyl-1,2-oxazol-5-yl)acetyl]amino}-1H-pyrazol-5-yl)cyclopentyl 3,3-dimethylmorpholine-4-carboxylate]
19 | 16.1 | 0.73 | CCN(C)C(=O)O[C@@H]1CC[C@H](c2cc(NC(=O)Cc3ccc(OC)cc3)n[nH]2)C1 [Example 240, (1R,3S)-3-(3-{[(4-methoxyphenyl)acetyl]amino}-1H-pyrazol-5-yl)cyclopentyl ethyl(methyl)carbamate]
20 | 15.9 | 0.14 | CC1(NC(=O)O[C@@H]2CC[C@H](c3cc(NC(=O)Cc4ccno4)n[nH]3)C2)CCCC1 [Example 117]
21 | 21.3 | 0.17 | CC[C@H](C)NC(=O)O[C@@H]1CC[C@H](c2cc(NC(=O)Cc3cncs3)n[nH]2)C1 [Example 36]
22 | 4.35 | 1.8 | Cc1ncc(CC(=O)Nc2cc([C@@H]3CC[C@H](OC(=O)N[C@H]4CC[C@](C)(O)CC4)C3)[nH]n2)s1 [Example 563, (1S,3R)-3-(3-{[(2-methyl-1,3-thiazol-5-yl)acetyl]amino}-1H-pyrazol-5-yl)cyclopentyl (trans-4-hydroxy-4-methylcyclohexyl)carbamate]
23 | 8.35 | 0.25 | Cc1cc(CC(=O)Nc2cc([C@H]3CC[C@@H](OC(=O)N4[C@@H](C)C[C@@H]4C)C3)[nH]n2)on1 [Example 150]
24 | 21.4 | 1.1 | CCCNC(=O)O[C@@H]1CC[C@H](c2cc(NC(=O)Cc3cc(C)no3)n[nH]2)C1 [Example 178, (1R,3S)-3-(3-{[(3-methyl-1,2-oxazol-5-yl)acetyl]amino}-1H-pyrazol-5-yl)cyclopentyl propylcarbamate]
25 | 2.76 | 0.51 | COc1ccc(CC(=O)Nc2cc([C@H]3CC[C@@H](OC(=O)N4C[C@@](C)(O)[C@@H]4C)C3)[nH]n2)cn1 [Example 627, (1R,3S)-3-(3-{[(6-methoxypyridin-3-yl)acetyl]amino}-1H-pyrazol-5-yl)cyclopentyl (2S,3R)-3-hydroxy-2,3-dimethylazetidine-1-carboxylate]
26 | 14.4 | 0.99 | Cc1cc(CC(=O)Nc2cc([C@H]3CC[C@@H](OC(=O)N4CCC[C@@H]4C)C3)[nH]n2)no1 [Example 634, (1R,3S)-3-(3-{[(5-methyl-1,2-oxazol-3-yl)acetyl]amino}-1H-pyrazol-5-yl)cyclopentyl (2S)-2-methylpyrrolidine-1-carboxylate]
27 | 41.7 | 0.43 | COc1cc(CC(=O)Nc2cc([C@H]3CC[C@@H](OC(=O)N[C@@H](C)CF)C3)[nH]n2)ccn1 [Example 100]
28 | 32 | 0.62 | CC(C)(C)NC(=O)O[C@@H]1CC[C@H](c2cc(NC(=O)Cc3ccccn3)n[nH]2)C1 [Example 294, (1R,3S)-3-{3-[(pyridin-2-ylacetyl)amino]-1H-pyrazol-5-yl}cyclopentyl tert-butylcarbamate]
29 | 32.6 | 0.39 | CC(C)NC(=O)O[C@H]1CC[C@@H](c2cc(NC(=O)Cc3cnn(C)c3)n[nH]2)C1 [Example 266, (1S,3R)-3-(3-{[(1-methyl-1H-pyrazol-4-yl)acetyl]amino}-1H-pyrazol-5-yl)cyclopentyl propan-2-ylcarbamate]
30 | 2.89 | 0.15 | COc1ccc(CC(=O)Nc2cc([C@H]3CC[C@@H](OC(=O)N(C)C(C)C)C3)[nH]n2)cn1 [Example 59]
31 | 9.58 | 0.17 | CC[C@H](C)NC(=O)O[C@@H]1CC[C@H](c2cc(NC(=O)Cc3ccc4c(cnn4C)c3)n[nH]2)C1 [Example 48]
32 | 13 | 0.71 | CCCNC(=O)O[C@@H]1CC[C@H](c2cc(NC(=O)Cc3cnc(C)s3)n[nH]2)C1 [Example 185, (1R,3S)-3-(3-{[(2-methyl-1,3-thiazol-5-yl)acetyl]amino}-1H-pyrazol-5-yl)cyclopentyl propylcarbamate]
33 | 10.6 | 0.49 | Cc1cc(CC(=O)Nc2cc([C@H]3CC[C@@H](OC(=O)N(C)C(C)C)C3)[nH]n2)on1 [Example 289, (1R,3S)-3-(3-{[(3-methyl-1,2-oxazol-5-yl)acetyl]amino}-1H-pyrazol-5-yl)cyclopentyl methyl(propan-2-yl)carbamate]
34 | 46 | 0.26 | CC(C)(C)NC(=O)O[C@@H]1CC[C@H](c2cc(NC(=O)Cc3cnc(C(F)(F)F)cn3)n[nH]2)C1 [Example 317, (1R,3S)-3-[3-({[5-(trifluoromethyl)pyrazin-2-yl]acetyl}amino)-1H-pyrazol-5-yl]cyclopentyl tert-butylcarbamate]
35 | 8.71 | 0.33 | C[C@H]1COCCN1C(=O)O[C@@H]1CC[C@H](c2cc(NC(=O)Cc3cc(F)cc(F)c3)n[nH]2)C1 [Example 644, (1R,3S)-3-(3-{[(3,5-difluorophenyl)acetyl]amino}-1H-pyrazol-5-yl)cyclopentyl (3S)-3-methylmorpholine-4-carboxylate]
